≈ marks a conversion by molar mass, not a printed value.
Assays:
Format in all cases: functional
Enterococcus faecalis [1] = assay: Antibacterial activity against Enterococcus faecalis ATCC 51575 assessed as bacterial count at 2 ug/ml after 2 hrs by time-kill assay
Staphylococcus aureus [2] = assay: Antibacterial activity against methicillin resistant Staphylococcus aureus MED 1805 bloodstream isolate assessed as bacterial count at 4 ug/ml after 4 hrs by time-kill assay
Streptococcus pyogenes [3] = assay: Antibacterial activity against Streptococcus pyogenes MED 2040 assessed as bacterial count at 0.5 ug/ml after 4 hrs by time-kill assay
Streptococcus agalactiae [4] = assay: (§1) Antibacterial activity against Streptococcus agalactiae MED 2038 assessed as bacterial count at […] after 24 hrs by time-kill assay
Enterococcus faecalis [5] = assay: Antibacterial activity against Enterococcus faecalis ATCC 51575 assessed as bacterial count at 8 ug/ml after 2 hrs by time-kill assay
Streptococcus pyogenes [6] = assay: Antibacterial activity against Streptococcus pyogenes MED 2040 assessed as bacterial count at […] after 8 hrs by time-kill assay
Streptococcus pyogenes [7] = assay: Antibacterial activity against Streptococcus pyogenes MED 2040 assessed as bacterial count at 8 ug/ml after 8 hrs by time-kill assay
Staphylococcus aureus [8] = assay: Antibacterial activity against methicillin resistant Staphylococcus aureus MED 1805 bloodstream isolate by broth microdilution method
Staphylococcus aureus [9] = assay: Antibacterial activity against methicillin resistant Staphylococcus aureus MED 2028 osteomyelitis isolate assessed as bacterial count at 16 ug/ml after 8 hrs by time-kill assay
[10] = test system: Staphylococcus epidermidis; assay: Antibacterial activity against methicillin resistant Staphylococcus epidermidis ATCC 35984 assessed as bacterial count at 16 ug/ml after 4 hrs by time-kill assay
Streptococcus agalactiae [11] = assay: Antibacterial activity against Streptococcus agalactiae MED 2038 assessed as bacterial count at 0.5 ug/ml after 2 hrs by time-kill assay
Staphylococcus aureus [12] = assay: Antibacterial activity against methicillin resistant Staphylococcus aureus MED 2028 osteomyelitis isolate assessed as bacterial count at 4 ug/ml after 24 hrs by time-kill assay
Staphylococcus aureus [13] = assay: Antibacterial activity against methicillin resistant Staphylococcus aureus MED 2028 osteomyelitis isolate assessed as bacterial count at 8 ug/ml after 8 hrs by time-kill assay
Streptococcus agalactiae [14] = assay: Antibacterial activity against Streptococcus agalactiae MED 2038 by broth microdilution method
Enterococcus faecalis [15] = assay: Antibacterial activity against Enterococcus faecalis ATCC 51575 assessed as bacterial count at 8 ug/ml after 4 hrs by time-kill assay
Streptococcus pyogenes [16] = assay: (§2) Antibacterial activity against Streptococcus pyogenes MED 2040 assessed as bacterial count at […] after 4 hrs by time-kill assay
Enterococcus faecalis [17] = assay: Antibacterial activity against Enterococcus faecalis ATCC 51575 by broth microdilution method
Staphylococcus aureus [18] = assay: Antibacterial activity against methicillin resistant Staphylococcus aureus MED 1805 bloodstream isolate assessed as bacterial count at 1 ug/ml after 24 hrs by time-kill assay
Streptococcus pyogenes [19] = assay: Antibacterial activity against Streptococcus pyogenes MED 2040 assessed as bacterial count at 8 ug/ml after 4 hrs by time-kill assay
Enterococcus faecalis [20] = assay: Antibacterial activity against Enterococcus faecalis ATCC 51575 assessed as bacterial count at 4 ug/ml after 4 hrs by time-kill assay
[21] = test system: Staphylococcus haemolyticus; assay: Antibacterial activity against methicillin resistant coagulase-negative Staphylococcus haemolyticus clinical isolate by broth microdilution method
Streptococcus pneumoniae [22] = assay: Antibacterial activity against multidrug resistant Streptococcus pneumoniae MED 1090 assessed as bacterial count at 0.03 ug/ml after 24 hrs by time-kill assay
Streptococcus pyogenes [23] = assay: Antibacterial activity against Streptococcus pyogenes MED 2040 assessed as bacterial count at 2 ug/ml after 4 hrs by time-kill assay
Enterococcus faecalis [24] = assay: Antibacterial activity against Enterococcus faecalis ATCC 51575 assessed as bacterial count at 4 ug/ml after 8 hrs by time-kill assay
Staphylococcus aureus [25] = assay: Antibacterial activity against methicillin resistant Staphylococcus aureus MED 2028 osteomyelitis isolate by broth microdilution method
Streptococcus agalactiae [26] = assay: Antibacterial activity against Streptococcus agalactiae MED 2038 assessed as bacterial count at […] after 8 hrs by time-kill assay
Streptococcus pyogenes [27] = assay: Antibacterial activity against Streptococcus pyogenes MED 2040 assessed as bacterial count at 2 ug/ml after 2 hrs by time-kill assay
Streptococcus pyogenes [28] = assay: Antibacterial activity against Streptococcus pyogenes MED 2040 assessed as bacterial count at 0.5 ug/ml after 24 hrs by time-kill assay
Streptococcus agalactiae [29] = assay: Antibacterial activity against Streptococcus agalactiae MED 2038 assessed as bacterial count at 8 ug/ml after 8 hrs by time-kill assay
Streptococcus pneumoniae [30] = assay: Antibacterial activity against multidrug resistant Streptococcus pneumoniae MED 1090 assessed as bacterial count at 8 ug/ml after 4 hrs by time-kill assay
Staphylococcus aureus [31] = assay: Antibacterial activity against methicillin resistant Staphylococcus aureus MED 1805 bloodstream isolate assessed as bacterial count at 2 ug/ml after 24 hrs by time-kill assay
[32] = test system: Staphylococcus epidermidis; assay: Antibacterial activity against methicillin resistant Staphylococcus epidermidis clinical isolate by broth microdilution method
Enterococcus faecalis [33] = assay: Antibacterial activity against vancomycin resistant Enterococcus faecalis VanB clinical isolate by broth microdilution method
Streptococcus agalactiae [34] = assay: as §1; remark: listed apart in the source
Staphylococcus aureus [35] = assay: Antibacterial activity against methicillin resistant Staphylococcus aureus MED 1805 bloodstream isolate assessed as bacterial count at 4 ug/ml after 24 hrs by time-kill assay
Staphylococcus aureus [36] = assay: Antibacterial activity against methicillin resistant Staphylococcus aureus MED 2028 osteomyelitis isolate assessed as bacterial count at 16 ug/ml after 2 hrs by time-kill assay
Staphylococcus aureus [37] = assay: Antibacterial activity against methicillin resistant Staphylococcus aureus MED 1805 bloodstream isolate assessed as bacterial count at 4 ug/ml after 2 hrs by time-kill assay
Enterococcus faecium = assay: Antibacterial activity against vancomycin resistant Enterococcus faecium VanA clinical isolate by broth microdilution method
Streptococcus agalactiae [38] = assay: Antibacterial activity against Streptococcus agalactiae MED 2038 assessed as bacterial count at 2 ug/ml after 2 hrs by time-kill assay
Streptococcus pneumoniae [39] = assay: Antibacterial activity against multidrug-resistant Streptococcus pneumoniae clinical isolate by broth microdilution method
Streptococcus pyogenes [40] = assay: Antibacterial activity against Streptococcus pyogenes group A clinical isolate by broth microdilution method
Staphylococcus aureus [41] = assay: Antibacterial activity against methicillin resistant Staphylococcus aureus MED 1805 bloodstream isolate assessed as bacterial count at 1 ug/ml after 4 hrs by time-kill assay
Staphylococcus aureus [42] = assay: Antibacterial activity against methicillin resistant Staphylococcus aureus MED 2028 osteomyelitis isolate assessed as bacterial count at 4 ug/ml after 4 hrs by time-kill assay
Staphylococcus aureus [43] = assay: Antibacterial activity against methicillin resistant Staphylococcus aureus MED 2028 osteomyelitis isolate assessed as bacterial count at 1 ug/ml after 2 hrs by time-kill assay
Streptococcus agalactiae [44] = assay: Antibacterial activity against Streptococcus agalactiae MED 2038 assessed as bacterial count at 0.5 ug/ml after 4 hrs by time-kill assay
Streptococcus pyogenes [45] = assay: as §2; remark: listed apart in the source

With `CCCCCCCCCCNCCN[C@@]1(C)C[C@H](O[C@H]2[C@H](Oc3c4cc5cc3Oc3ccc(cc3Cl)[C@@H](O)[C@@H](NC(=O)[C@@H](CC(C)C)NC)C(=O)N[C@@H](CC(N)=O)C(=O)N[C@H]5C(=O)N[C@H]3C(=O)N[C@H](C(=O)N[C@H](C(=O)O)c5cc(O)c(CNCP(=O)(O)O)c(O)c5-c5cc3ccc5O)[C@H](O)c3ccc(c(Cl)c3)O4)O[C@H](CO)[C@@H](O)[C@@H]2O)O[C@@H](C)[C@H]1O` [TELAVANCIN] the log10CFU/ml (Enterococcus faecalis [1]) was 0.5, the log10CFU/ml (Staphylococcus aureus [2]) was 1.8 and the log10CFU/ml (Streptococcus pyogenes [3]) was 1.6. The log10CFU/ml (Streptococcus agalactiae [4]) was 3.6, the log10CFU/ml (Enterococcus faecalis [5]) was 0.2 and the log10CFU/ml (Streptococcus pyogenes [6]) was 2.5. The log10CFU/ml (Streptococcus pyogenes [7]) was 2.7, the MIC (Staphylococcus aureus [8]) was 0.5 µg/mL (≈ 0.285 µM) and the log10CFU/ml (Staphylococcus aureus [9]) was 2.3. The log10CFU/ml [10] was 3.2, the log10CFU/ml (Streptococcus agalactiae [11]) was 0.87 and the log10CFU/ml (Staphylococcus aureus [12]) was 3.4. For the same compound, the log10CFU/ml (Staphylococcus aureus [13]) was 3.4, the MIC (Streptococcus agalactiae [14]) was 0.06 µg/mL (≈ 0.0342 µM) and the log10CFU/ml (Enterococcus faecalis [15]) was 0.2. The log10CFU/ml (Streptococcus pyogenes [16]) was 1.8, the MIC (Enterococcus faecalis [17]) was 1 µg/mL (≈ 0.57 µM) and the log10CFU/ml (Staphylococcus aureus [18]) was 2.7. It also gave a log10CFU/ml (Streptococcus pyogenes [19]) of 1.2, a log10CFU/ml (Enterococcus faecalis [20]) of 0.5 and an MIC50 [21] of 0.5 µg/mL (≈ 0.285 µM). The MIC90 [21] was 1 µg/mL (≈ 0.57 µM), the log10CFU/ml (Streptococcus pneumoniae [22]) was 3.4 and the log10CFU/ml (Streptococcus pyogenes [23]) was 2.7. It also gave a log10CFU/ml (Enterococcus faecalis [24]) of 0.7, an MIC (Staphylococcus aureus [25]) of 0.5 µg/mL (≈ 0.285 µM) and a log10CFU/ml (Streptococcus agalactiae [26]) of 2.3. It also gave a log10CFU/ml (Streptococcus pyogenes [27]) of 1.8, a log10CFU/ml (Streptococcus pyogenes [28]) of 3.1 and a log10CFU/ml (Streptococcus agalactiae [29]) of 1.8. The log10CFU/ml (Streptococcus pneumoniae [30]) was 1.7, the log10CFU/ml (Staphylococcus aureus [31]) was 2.8 and the MIC50 [32] was 0.5 µg/mL (≈ 0.285 µM). The MIC90 [32] was 1 µg/mL (≈ 0.57 µM), the MIC (Enterococcus faecalis [33]) was 0.25 µg/mL (≈ 0.142 µM) and the log10CFU/ml (Streptococcus agalactiae [34]) was 0.6. It also gave a log10CFU/ml (Staphylococcus aureus [35]) of 3.3, a log10CFU/ml (Staphylococcus aureus [36]) of 0.3 and a log10CFU/ml (Staphylococcus aureus [37]) of 1.2. The MIC50 (Enterococcus faecium) was 8 µg/mL (≈ 4.56 µM), the MIC90 (Enterococcus faecium) was 16 µg/mL (≈ 9.11 µM) and the log10CFU/ml (Streptococcus agalactiae [38]) was 0.8. It also gave an MIC50 (Streptococcus pneumoniae [39]) of 0.015 µg/mL (≈ 0.00854 µM), an MIC90 (Streptococcus pneumoniae [39]) of 0.03 µg/mL (≈ 0.0171 µM) and an MIC50 (Streptococcus pyogenes [40]) of 0.03 µg/mL (≈ 0.0171 µM). For the same compound, the MIC90 (Streptococcus pyogenes [40]) was 0.06 µg/mL (≈ 0.0342 µM), the log10CFU/ml (Staphylococcus aureus [41]) was 1.8 and the log10CFU/ml (Staphylococcus aureus [42]) was 1.7. It also gave a log10CFU/ml (Staphylococcus aureus [43]) of 0.7, a log10CFU/ml (Streptococcus agalactiae [44]) of 1 and a log10CFU/ml (Streptococcus pyogenes [45]) of 0.4.
